# Measurements reported in paper PMC9266550, “The 2-hydroxy-3-(4-aryl-1-piperazinyl)propyl Phthalimide Derivatives as Prodrugs—Spectroscopic and Theoretical Binding Studies with Plasma Proteins” (International Journal of Molecular Sciences, 2022).
# Assays:
# [1] = target: T1, bovine α1-acid glycoprotein (AAG), orosomucoid (Bos taurus, UniProt Q3SZR3); assay: intrinsic fluorescence quenching, excitation […] nm; type: binding; details: 297 K, phosphate buffer pH 7.5; double-log
# T1 construct: gene ORM1; native plasma glycoprotein, commercial (Sigma-Aldrich), mature form
# T1 sequence (Q3SZR3 19-202): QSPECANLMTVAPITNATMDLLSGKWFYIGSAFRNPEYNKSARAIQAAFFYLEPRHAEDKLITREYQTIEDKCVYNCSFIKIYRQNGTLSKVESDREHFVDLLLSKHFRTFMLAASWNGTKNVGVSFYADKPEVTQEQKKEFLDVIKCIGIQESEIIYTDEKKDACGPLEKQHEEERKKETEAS
# [2] = target: T2, bovine serum albumin (BSA) (Bos taurus, UniProt P02769); assay: intrinsic fluorescence quenching, excitation […] nm; type: binding; details: 297 K, phosphate buffer pH 7.5, no site marker; double-log
# T2 construct: gene ALB; native plasma protein, commercial (Sigma-Aldrich), mature form
# T2 sequence (P02769 25-607): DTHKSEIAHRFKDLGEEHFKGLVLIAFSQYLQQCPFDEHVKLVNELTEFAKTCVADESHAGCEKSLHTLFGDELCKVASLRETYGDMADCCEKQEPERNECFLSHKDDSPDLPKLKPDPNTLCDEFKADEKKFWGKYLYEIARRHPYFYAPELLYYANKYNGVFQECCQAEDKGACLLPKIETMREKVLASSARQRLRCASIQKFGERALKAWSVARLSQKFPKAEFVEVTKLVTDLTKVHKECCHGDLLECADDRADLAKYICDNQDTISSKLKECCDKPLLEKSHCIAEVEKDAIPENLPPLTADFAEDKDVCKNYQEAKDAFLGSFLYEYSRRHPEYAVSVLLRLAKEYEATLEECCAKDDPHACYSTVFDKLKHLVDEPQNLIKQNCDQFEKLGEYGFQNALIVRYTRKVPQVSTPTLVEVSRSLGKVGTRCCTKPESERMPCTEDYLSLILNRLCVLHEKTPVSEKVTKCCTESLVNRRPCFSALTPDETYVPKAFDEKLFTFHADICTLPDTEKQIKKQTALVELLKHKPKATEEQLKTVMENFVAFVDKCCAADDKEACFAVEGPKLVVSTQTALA
compound,measurement,setting,value
O=C1c2ccccc2C(=O)N1CC(O)CN1CCN(c2ccccc2)CC1 (centres unmarked) [F1],Binding / Kb × 10^3 [dm^3.mol^-1],[1],2.12 × 10^3 dm^3·mol^−1
same,Binding / Kb × 10^5 [dm^3.mol^-1],[2],2.13 × 10^5 dm^3·mol^−1
COc1ccccc1N1CCN(CC(O)CN2C(=O)c3ccccc3C2=O)CC1 (centres unmarked) [F2],Binding / Kb × 10^3 [dm^3.mol^-1],[1],1.21 × 10^3 dm^3·mol^−1
same,Binding / Kb × 10^5 [dm^3.mol^-1],[2],0.55 × 10^5 dm^3·mol^−1
O=C1c2ccccc2C(=O)N1CC(O)CN1CCN(C(c2ccccc2)c2ccccc2)CC1 (centres unmarked) [F4],Binding / Kb × 10^3 [dm^3.mol^-1],[1],2.75 × 10^3 dm^3·mol^−1
same,Binding / Kb × 10^5 [dm^3.mol^-1],[2],1.99 × 10^5 dm^3·mol^−1
O=C1c2ccccc2C(=O)N1CC(O)CN1CCN(c2cccc(C(F)(F)F)c2)CC1 (centres unmarked) [F3],Binding / Kb × 10^3 [dm^3.mol^-1],[1],4.17 × 10^3 dm^3·mol^−1
same,Binding / Kb × 10^5 [dm^3.mol^-1],[2],1.75 × 10^5 dm^3·mol^−1
